{
  "source": "patent US20180250309A1",
  "about": "“METHODS FOR TREATMENT OF MONOCYTE DYSFUNCTION AND CHRONIC INFLAMMATORY MICRO AND MACRO-VASCULAR DISEASES” (THE BOARD OF REGENTS OF THE UNIVERSITY OF TEXAS SYSTEM, priority 2015, published 2018)",
  "key": {"[1]": {"system": "THP-1 monocytes", "assay": "Monocyte chemotaxis of metabolically primed THP-1 monocytes towards MCP-1 (modified Boyden chamber)", "assay_type": "cell-based, Human", "settings": "for monocyte chemotaxis: primed with glucose and LDL, 1 nM MCP-1, FIG. 2; for normal or baseline responses to chemokines: unprimed, non-pathogenic chemotaxis", "description": "(§1) Chemotaxis assays are performed using 48-well, modified Boyden chambers (NeuroProbe, Gaithersburg, Md.) as described previously (1). Briefly, monocytes are primed with glucose and LDL in the presence of UA, 23-OHUA or vehicle (0.1% DMSO). Cells are loaded into upper wells of the chemotaxis chamber. Lower wells contain cell media with 1 nM MCP-1 (R&D Systems, Minneapolic, Minn.) or vehicle. A 5 μm polyvinyl pyrrolidone-free polycarbonate filter membrane is layered between the upper and lower chambers, and the chamber is incubated for 1.5 h for THP-1 monocytes at 37° C. and 5% CO2. The membrane is washed and cells removed from the upper side of the filter and fixed with methanol. Transmigrated are stained with 1 μM propidium iodide. Fluorescence intensity, which correlates with cell number is quantified with KODAK Image Station 4000MM (Carestream, Rochester, N.Y.).\nCell Culture/Priming. Human monocytic THP-1 cells (ATCC) were cultured in THP-1 medium (RPMI 1640, 5 mM glucose, 10% fetal bovine serum (FBS), 2% glutamax, 1% penicillin/streptomycin, 1% HEPES, 0.1% β-mercaptoethanol). Cells are spun down at 400 g, 5 minutes at 25° C. and resuspended in media at […]. Following 48 hours at 37° C. and 5% CO2, cells are plated in 12-well cell culture plates. Phytochemicals are solubilized in dimethylsulfoxide (DMSO) and are added to suspended THP-1 cells at concentrations from 0.03 μM to 3 μM. Control cells without phytonutrients are treated with 0.1% DMSO. Cytotoxicity was assessed with a trypan exclusion assay. To induce a metabolically stressed condition (priming), cells were treated with freshly isolated human LDL is added (100 μg/ml) along with D-glucose (20 mM) for 24 hours.\nas §1, with “Chemotaxis. Chemotaxis” for “Chemotaxis”, “(Ullevig et al. Redox Biology. 2014 01/03;2:259-66).” for “(1).”, “islayered” for “is layered”"}, "[2]": {"system": "Nox4", "assay": "Induction of Nox4 in monocytes under metabolic stress", "assay_type": "cell-based", "source_text": "The inventor has elucidated the mechanism through which hypercholesterolemia and hyperglycemia promote monocyte dysfunction. Monocyte dysfunction is induced by metabolic disorders via the pathological induction of Nox4."}, "[3]": {"system": "diabetic atherosclerosis", "assay": "Dietary supplementation in diabetic mice: monocyte dysfunction, macrophage recruitment, atherosclerosis", "assay_type": "in vivo"}, "[4]": {"assay": "Solubility / hydrophilicity relative to ursolic acid", "assay_type": "physicochemical"}},
  "note": "Where two headings read alike, the source gives them in different places.",
  "data": [
    {"smiles": "C[C@H]1[C@H](C)CC[C@]2(C(=O)O)CC[C@]3(C)C(=CC[C@@H]4[C@@]5(C)CC[C@H](O)C(C)(C)[C@@H]5CC[C@]43C)[C@H]12", "note": "[UA, Ursolic acid]", "values": [
      {"measurement": "monocyte priming by metabolic stress (hypersensitization to chemokine-induced activation)", "setting": "[1]", "value": "inhibit"},
      {"measurement": "monocyte chemotaxis", "setting": "[1]", "value": "reducing monocyte chemotaxis"},
      {"measurement": "normal or baseline responses to chemokines", "setting": "[1]", "value": "do not block or affect normal or baseline responses to chemokines"},
      {"measurement": "induction of Nox4", "setting": "[2]", "value": "prevent the induction of Nox4"},
      {"measurement": "atherosclerosis", "setting": "[3]", "value": "potent inhibitor of diabetic atherosclerosis"},
      {"measurement": "monocyte dysfunction and macrophage recruitment", "setting": "[3]", "value": "attenuates monocyte dysfunction and macrophage recruitment"},
      {"measurement": "atherosclerosis", "setting": "[3]; listed as ursolic acid", "value": "protects diabetic mice from atherosclerosis"}
    ]},
    {"smiles": "CC1CCC2(C(=O)O)CCC3(C)C(=CCC4C5(C)CCC(O)C(C)(CO)C5CCC43C)C2C1C", "note": "(stereo not drawn) [23-OH UA, 3β, 23-dihydroxyurs-12-en-28oic acid]", "values": [
      {"measurement": "monocyte priming by metabolic stress (hypersensitization to chemokine-induced activation)", "setting": "[1]", "value": "inhibit"},
      {"measurement": "monocyte chemotaxis", "setting": "[1]", "value": "reducing monocyte chemotaxis"},
      {"measurement": "normal or baseline responses to chemokines", "setting": "[1]", "value": "do not block or affect normal or baseline responses to chemokines"},
      {"measurement": "induction of Nox4", "setting": "[2]", "value": "prevents the induction of Nox4"},
      {"measurement": "monocyte dysfunction", "setting": "[2]", "value": "prevents"},
      {"measurement": "hydrophilicity relative to UA", "setting": "[4]", "value": "more hydrophilic"},
      {"measurement": "solubility compared with ursolic acid", "setting": "[4]", "value": "more soluble"}
    ]}
  ]
}
